The term Inhibition denotes the change of the read-out against control, counted positive when it falls. A lower Inhibition goes with a response near the control. A word on the IC50: it is the concentration that gives 50% inhibition.

The subject of experiment [1] is L1210. Nature of the experiment: In vitro antitumor activity using the incorporation of thymidine and uridine into RNA of L1210 cells at time 3 hr. In kind it is functional, Mus musculus.
For experiment [2], the system named is L1210. Put plainly: In vitro antitumor activity using the incorporation of thymidine and uridine into RNA of L1210 cells at time 2 hr. In kind it is functional, Mus musculus.
Experiment [3] deals with K562. Put plainly: In vitro antitumor activity against K562 cell line extracted formchronic myelogenous leukemia. In kind it is functional, cell-based. The note with it: Homo sapiens.
Experiment [4] concerns HT-1080. Nature of the experiment: In vitro antitumor activity against HT1080 cell line extracted form fibrosarcoma. In kind it is functional, cell-based. The conditions noted are these: Homo sapiens.
The test system of experiment [5] is L1210. Nature of the experiment: In vitro antitumor activity using the incorporation of thymidine and uridine into DNA of L1210 cells at time 2 hr. In kind it is functional, Mus musculus.
The subject of experiment [6] is L1210. Put plainly: In vitro antitumor activity using the incorporation of thymidine and uridine into RNA of L1210 cells at time 1 hr. In kind it is functional, Mus musculus.
For experiment [7], the system named is L1210. Put plainly: In vitro antitumor activity using the incorporation of thymidine and uridine into DNA of L1210 cells at time 3 hr. In kind it is functional, Mus musculus.
Experiment [8] concerns L1210. Put plainly: In vitro antitumor activity using the incorporation of thymidine and uridine into DNA of L1210 cells at time 1 hr. In kind it is functional, Mus musculus.
The subject of experiment [9] is COLO 320DM. Put plainly: In vitro antitumor activity against COLO 320DM cell line extracted form colon adenocarcinoma. In kind it is functional, cell-based. The note with it: Homo sapiens.
For experiment [10], the system named is PANC-1. Nature of the experiment: In vitro antitumor activity against PANC cell line extracted form pancreas adenocarcinoma. In kind it is functional, cell-based. The note with it: Homo sapiens.
For experiment [11], the system named is A-375. Put plainly: In vitro antitumor activity against A375cell line extracted form melanoma. In kind it is functional, cell-based. The conditions noted are these: Homo sapiens.
In experiment [12] the test system is MIA PaCa-2. Put plainly: In vitro antitumor activity against MiaPaCa-2 cell line extracted form pancreas adenocarcinoma. In kind it is functional, cell-based. The note with it: Homo sapiens.
For experiment [13], the system named is CCRF-CEM. Nature of the experiment: In vitro antitumor activity against CCRF-CEM cell line extracted form acute lymphoblastic leukemia. In kind it is functional, cell-based. The conditions noted are these: Homo sapiens.
Experiment [14] concerns HL-60. Nature of the experiment: In vitro antitumor activity against HL-60 cell line extracted formpromyelocytic leukemia. The conditions noted are these: Homo sapiens. In kind it is functional, cell-based.
For experiment [15], the system named is MCF7. Put plainly: In vitro antitumor activity against MCF-7 cell line extracted form mammary carcinoma. In kind it is functional, cell-based. The conditions noted are these: Homo sapiens.
Experiment [16] deals with Huh-7. Put plainly: In vitro antitumor activity against HuH7 cell line extracted form hepatoma. In kind it is functional, cell-based. The note with it: Homo sapiens.

Each structure is given as a SMILES string.

As for `Nc1ccn(C2OC(CO)[C@@H](O)[C@H]2NO)c(=O)n1` (stereo partly specified), the Inhibition in experiment [1] turned out to be 23%; in experiment [2], 20%; in experiment [5], 98%; in experiment [6], 21%; in experiment [7], 95%; in experiment [8] it was 83%. Besides, the IC50 in experiment [3] was 2770 nM; in experiment [4] it was 2530 nM; in experiment [9], 8930 nM; in [10], 69100 nM; in experiment [11], 890 nM; in experiment [12] it was 4000 nM. The half-inhibitory concentration (IC50) in [13] was determined as 1730 nM; in [14] it was 5760 nM; in experiment [15], 1300 nM; in experiment [16], 1470 nM.

Values taken from ChEMBL document CHEMBL1130896, “Nucleosides and nucleotides. 176. 2'-Deoxy-2'-hydroxylaminocytidine: a new antitumor nucleoside that inhibits DNA synthesis although it has a ribonucleoside structure” (Bioorg Med Chem Lett, 1998).
